Test results as given in PubChem BioAssay (NCI).
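Method: 48-hour compound exposure of cells in 96-well plates, five concentrations, linear interpolation of endpoints. GI50 marks 50% less growth. TGI denotes the concentration required for complete inhibition of growth.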

Tests used:
Assay in all cases: DTP human tumour cell line panel, 48 h
A498 renal = tested on: A498 renal
SN12C renal = tested on: SN12C renal
NCI-H460 lung = tested on: NCI-H460 lung
MALME-3M melanoma = tested on: MALME-3M melanoma
UO-31 renal = tested on: UO-31 renal
SK-MEL-28 melanoma = tested on: SK-MEL-28 melanoma
SF-268 CNS = tested on: SF-268 CNS
TK-10 renal = tested on: TK-10 renal
SNB-75 CNS = tested on: SNB-75 CNS
MDA-MB-435 = tested on: MDA-MB-435

Compound | TGI (A498 renal) [µM] | TGI (SN12C renal) [µM] | TGI (NCI-H460 lung) [µM] | TGI (MALME-3M melanoma) [µM] | TGI (UO-31 renal) [µM] | TGI (SK-MEL-28 melanoma) [µM] | TGI (SF-268 CNS) [µM] | TGI (TK-10 renal) [µM] | TGI (SNB-75 CNS) [µM] | GI50 (A498 renal) [µM] | GI50 (SN12C renal) [µM] | GI50 (MALME-3M melanoma) [µM] | GI50 (UO-31 renal) [µM] | GI50 (SK-MEL-28 melanoma) [µM] | GI50 (TK-10 renal) [µM] | GI50 (SNB-75 CNS) [µM] | GI50 (MDA-MB-435) [µM] | TGI (MDA-MB-435) [µM] | GI50 (NCI-H460 lung) [µM] | GI50 (SF-268 CNS) [µM]
Cc1cccc(Cl)c1NC(N)=S | > 100 | > 100 | > 100 | > 100 | > 100 | > 100 | > 100 | > 100 | > 100 | – | – | – | – | – | – | – | – | – | – | –
NC1=NN(c2ccccc2)C(=O)C1/C(=N\NC(=O)c1cc2ccccc2cc1O)C(=O)Nc1nc([N+](=O)[O-])cs1 (stereo not given) | > 100 | > 100 | 46.1 | > 100 | 30.3 | > 100 | > 100 | > 100 | > 100 | – | – | – | – | – | – | – | – | – | – | –
CCCCNC(=O)OCC(COc1ccccc1OC)OC(=O)NCCCC (stereo not given) | > 100 | > 100 | > 100 | > 100 | > 100 | > 100 | > 100 | > 100 | > 100 | – | – | – | – | – | – | – | – | – | – | –
C=CCC(N[C@@H](CO)c1ccccc1)c1ccccn1 (stereo not given in full) | > 100 | > 100 | – | > 100 | > 100 | > 100 | – | > 100 | > 100 | 46.8 | 22.9 | > 100 | 93.4 | > 100 | > 100 | > 100 | > 100 | > 100 | – | –
CC(C)(C)CC(C)(C)N(CSc1ccc(Cl)cc1)CSc1ccc(Cl)cc1 | 0.863 | 3.45 | 8.38 | – | 1.93 | 5.74 | 4.39 | – | 5.68 | 0.207 | 0.506 | – | 0.489 | 1.99 | – | 1.13 | 1.45 | 4.05 | 0.829 | 0.803
O=C1NC2(CCCC2)/C(=N\O)C12CCCC2 | > 100 | > 100 | > 100 | > 100 | > 100 | > 100 | > 100 | > 100 | > 100 | – | – | – | – | – | – | – | – | – | – | –
Clc1ccccc1C1N2CCCCC2[C@@H]2c3[nH]c4ccccc4c3CCN12 (stereo not given in full) | 30.3 | 30.9 | 35.6 | 22.1 | 39 | 34.2 | 38.4 | 60 | 66.7 | – | – | – | – | – | – | – | – | – | – | –
O=C(c1ccccn1)c1nc(-c2ccc(Cl)c(Cl)c2)nc2ccc(Cl)cc12 | > 100 | – | > 100 | > 100 | > 100 | > 100 | – | > 100 | 35 | – | – | – | – | – | – | – | – | – | – | –
COc1ccc(OC)c(/C=C/C(=O)C(C)(C)C)c1 | 80 | 45.4 | > 100 | 45.3 | – | 31.8 | – | 72.7 | 56.8 | – | – | – | – | – | – | – | – | – | – | –
C=CC[N+]1(CCO)CCN=C1CCCCCCCCCCCCC (stereo not given) | 8.26 | 2.85 | 3.06 | 3.18 | 2.57 | 3.12 | – | 3.4 | 2.9 | 2.09 | 1.46 | 1.6 | 1.18 | 1.75 | 1.99 | 1.56 | 1.72 | 3.09 | 1.7 | –
COc1ccc2c(c1)C(=O)c1c-2c(OCCN(C)C)nc2cc(OC)ccc12 | 3.07 | 2.69 | 1.51 | – | 2.66 | 4.19 | 2.84 | 13.7 | 9.02 | 1.39 | 1.06 | – | 1.16 | 2.08 | 3.14 | 1.99 | 1.62 | 3.72 | 0.411 | 1.12
CN(C)CCNC(=O)c1cccc2ccc(-c3cccnc3)nc12 | 8.22 | 23.1 | > 100 | 16.8 | 9.71 | 24.3 | 26.3 | 7.05 | 23.7 | – | – | – | – | – | – | – | – | – | – | –
C/C=C/C(=O)[C@@H](O)C(C)C | – | > 100 | – | > 100 | > 100 | > 100 | > 100 | > 100 | > 100 | – | – | – | – | – | – | – | – | – | – | –
COc1cc(CNc2nc3cc(N)cc(N)c3nc2-c2ccccc2)cc(OC)c1OC | 14.7 | 16.7 | > 50 | – | > 50 | 17.6 | 14 | 17.9 | 14.6 | 6.34 | 8.66 | – | 11.1 | 8.53 | 6.25 | 0.813 | 0.227 | 0.907 | 1.53 | 2.93
Cc1cc2c(=O)cc(-c3ccc(C(F)(F)F)cc3)oc2c(C(=O)O)c1C | – | > 100 | > 100 | > 100 | > 100 | > 100 | > 100 | > 100 | > 100 | – | – | – | – | – | – | – | – | – | – | –
O=S(=O)(CC#CCCCOCC#Cc1ccccc1C#CCS(=O)(=O)c1ccccc1)c1ccccc1 | > 100 | 40.7 | > 100 | 59.7 | 35.4 | – | 50.1 | > 100 | – | > 100 | 18.3 | 20.6 | 17.7 | – | > 100 | – | 26 | 62.4 | 31.2 | 19.6
CCOc1ccccc1NC(=O)C(=O)C(C(=O)c1ccc2ccccc2c1)C1OC(=O)c2ccccc21 (stereo not given) | 30.5 | 37.4 | 52.2 | 30.2 | 29.1 | 35.5 | 53.1 | 54.8 | 31 | – | – | – | – | – | – | – | – | – | – | –
O=C1OCC2=C1C(c1cccc(C(F)(F)F)c1)c1cc3c(cc1N2CCO)OCO3 (stereo not given) | 10.9 | > 50 | > 50 | > 50 | > 50 | > 50 | > 50 | > 50 | – | 1.08 | 2.9 | 2.67 | 2.19 | 4.54 | 10.1 | – | 0.161 | 0.641 | 1.54 | 4.78
O=c1c2cc(Br)ccc2nc(-c2ccccc2)n1NCC1(O)OCC(O)C(O)C1O (stereo not given) | > 100 | > 100 | > 100 | > 100 | > 100 | > 100 | > 100 | – | > 100 | – | – | – | – | – | – | – | – | – | – | –
